Columns and labels:
Assay in all cases: Pre-emergent control of seed germination, soil drench
Type in all cases: in vivo
[1] = test system: White Winter Wheat; conditions: Table IV
Excerpt: (§1) Four parts by weight of the compound, 0.08 part of sorbitan trioleate (Span 85), and 0.02 part of a sorbitan monooleate polyoxyethylene derivative (Tween 80) are dipersed in 40 milliliters of acetone to produce a concentrate composition in the form of a water-dispersible liquid containing the predetermined oxirane compound as the sole active agent.
(§2) A portion of each of these concentrate compositions were separately dispersed in portions of water to provide aqueous compositions, containing 0.44 pound of the oxirane compound per 100 gallons of ultimate aqueous mixture.
(§3) The aqueous compositions were then employed for the treatment of seed beds of good agricultural soil which had been prepared and seeded with the seeds of various grass species and broadleaf plants. The grass species included white winter wheat, cultured rice, pigweeds, crabgrass, cheat grass, wild oats, Johnson grass, barnyard grass and yellow foxtail; and the broadleaf plants included corn. In the treating operations, a predetermined quantity of each of the compositions was applied to separate seedbeds as a soil drench at a rate of about 0.43 acre inch of aqueous composition per acre. The quantities were controlled to supply a substantial uniform dosage in a seedbed equivalent to 1.0, 2.0 and 5.0 pounds of the oxirane compound per acre. These dosages correspond, respectively, to a concentration, within the soil depth penetrated of about 1.6, 3.2 and 8.0 parts by weight of the oxirane compound per million parts by weight of soil. Other seedbeds were similarly seeded with the named plant species but were left untreated to serve as checks.
(§4) After about 2 weeks the seedbeds were examined to ascertain what control of the growth of seeds had been obtained.
(§5) An aqueous composition containing 2-(α,α,α -trifluoro-m-tolyl)-2-(2,2,2-trichloroethyl)oxirane was prepared as described in Example 32. The composition was then employed according to the procedures of Example 32 except that lower concentrations of the oxirane compound were employed in the composition.
(§6) The percent control of the various plant species at the employed dosage rate of the 2-(α,α,α-trifluoro-m-tolyl)- 2-(2,2,2-trichloroethyl) supplied by the composition is set forth in the following Table IV.

[2] = test system: Cultured Rice; conditions: Table IV
Excerpt: as §1, §2, §3, §4, §5, §6

[3] = test system: Beans; conditions: Table IV
Excerpt: as §1, §2, §3, §4, §5, §6

[4] = test system: Crabgrass; conditions: Table IV, Crabgrass
Excerpt: as §1, §2, §3, §4
(§7) were prepared as in Example 32 and similarly employed for the pre-emergencetreatment of various plant species.
(§8) Separate aqueous compositions containing the 2-(m-chlorophenyl)-2-(2,2,2-trichloroethyl)oxirane (Cmpd. A) and 2-(m-bromophenyl)-2-(2,2,2-trichloroethyl)oxirane (Cmpd. C) compounds of the present invention were prepared as in Example 32 for comparative per-emergence herbicide tests against noxious grass species with the known 2 -(p-chlorophenyl)-2-(2,2,2-trichloroethyl)oxirane (Cmpd. B) compound and 2-(p-bromophenyl)-2-(2,2,2-trichloroethyl)oxirane (Cmpd. D). The pre-emergence tests were conducted in Example 32 and the results of such tests are set forth below in Table III.
as §5, §6

[5] = test system: Johnson Grass; conditions: Table IV, Johnson Grass
Excerpt: as §1, §2, §3, §4, §7, §8, §5, §6

[6] = test system: Cotton; conditions: Table IV
Excerpt: as §1, §2, §3, §4, §8, §5, §6

[7] = test system: Wild Oats; conditions: for Percent Pre-Emergent Control of Seed Germination: Table IV, Wild Oats
Excerpt: as §1, §2, §3, §4, §7, §5, §6

[8] = test system: Pigweeds; conditions: for Percent Pre-Emergent Control of Seed Germination: Table IV, Pigweeds
Excerpt: as §1, §2, §3, §4, §7, §5, §6

[9] = test system: Yellow Foxtail; conditions: for Percent Pre-Emergent Control of Seed Germination: Table IV, Yellow Foxtail
Excerpt: as §1, §2, §3, §4, §7, §5, §6

[10] = test system: Barnyard Grass; conditions: for Percent Pre-Emergent Control of Seed Germination: Table IV, Barnyard Grass
Excerpt: as §1, §2, §3, §4, §7, §5, §6

[11] = test system: Corn; conditions: Table IV
Excerpt: as §1, §2, §3
After about 2 weeks the seedbeds were examined to ascertain what control of the growth of seeds had been obtained. […]
as §5, §6

[12] = test system: Soybeans; conditions: Table IV
[13] = test system: Crabgrass; conditions: 20 pounds per acre

FC(F)(F)c1cccc(C2(CC(Cl)(Cl)Cl)CO2)c1 (stereo not drawn) [Example 4, 2-(α,α,α -trifluoro-m-tolyl)-2-(2,2,2-trichloroethyl)oxirane]
Percent Pre-Emergent Control of Seed Germination ([1]; 0.03 pounds): 0%
Percent Pre-Emergent Control of Seed Germination ([1]; 0.07 pounds): 50%
Percent Pre-Emergent Control of Seed Germination ([1]; 0.13 pounds): 100%
Percent Pre-Emergent Control of Seed Germination ([1]; 0.25 pounds): 100%
Percent Pre-Emergent Control of Seed Germination ([1]; 0.5 pounds): 100%
Percent Pre-Emergent Control of Seed Germination ([1]; 1.0 pounds): 100%
Percent Pre-Emergent Control of Seed Germination ([2]; 0.03 pounds): 0%
Percent Pre-Emergent Control of Seed Germination ([2]; 0.07 pounds): 30%
Percent Pre-Emergent Control of Seed Germination ([2]; 0.13 pounds): 100%
Percent Pre-Emergent Control of Seed Germination ([2]; 0.25 pounds): 100%
Percent Pre-Emergent Control of Seed Germination ([2]; 0.5 pounds): 100%
Percent Pre-Emergent Control of Seed Germination ([2]; 1.0 pounds): 100%
Percent Pre-Emergent Control of Seed Germination ([3]; 0.03 pounds): 30%
Percent Pre-Emergent Control of Seed Germination ([3]; 0.07 pounds): 30%
Percent Pre-Emergent Control of Seed Germination ([3]; 0.13 pounds): 30%
Percent Pre-Emergent Control of Seed Germination ([3]; 0.25 pounds): 60%
Percent Pre-Emergent Control of Seed Germination ([3]; 0.5 pounds): 70%
Percent Pre-Emergent Control of Seed Germination ([3]; 1.0 pounds): 95%
Percent Pre-Emergent Control of Seed Germination ([4]; 0.03 pounds): 60%
Percent Pre-Emergent Control of Seed Germination ([4]; 0.07 pounds): 75%
Percent Pre-Emergent Control of Seed Germination ([4]; 0.13 pounds): 100%
Percent Pre-Emergent Control of Seed Germination ([4]; 0.25 pounds): 100%
Percent Pre-Emergent Control of Seed Germination ([4]; 0.5 pounds): 100%
Percent Pre-Emergent Control of Seed Germination ([4]; 1.0 pounds): 100%
Percent Pre-Emergent Control of Seed Germination ([5]; 0.03 pounds): 0%
Percent Pre-Emergent Control of Seed Germination ([5]; 0.07 pounds): 80%
Percent Pre-Emergent Control of Seed Germination ([5]; 0.13 pounds): 100%
Percent Pre-Emergent Control of Seed Germination ([5]; 0.25 pounds): 100%
Percent Pre-Emergent Control of Seed Germination ([5]; 0.5 pounds): 100%
Percent Pre-Emergent Control of Seed Germination ([5]; 1.0 pounds): 100%
Percent Pre-Emergent Control of Seed Germination ([6]; 0.03 pounds): 0%
Percent Pre-Emergent Control of Seed Germination ([6]; 0.07 pounds): 0%
Percent Pre-Emergent Control of Seed Germination ([6]; 0.13 pounds): 0%
Percent Pre-Emergent Control of Seed Germination ([6]; 0.25 pounds): 0%
Percent Pre-Emergent Control of Seed Germination ([6]; 0.5 pounds): 30%
Percent Pre-Emergent Control of Seed Germination ([6]; 1.0 pounds): 20%
Percent Pre-Emergent Control of Seed Germination ([7]; 0.03 pounds): 30%
Percent Pre-Emergent Control of Seed Germination ([7]; 0.07 pounds): 85%
Percent Pre-Emergent Control of Seed Germination ([7]; 0.13 pounds): 95%
Percent Pre-Emergent Control of Seed Germination ([7]; 0.25 pounds): 95%
Percent Pre-Emergent Control of Seed Germination ([7]; 0.5 pounds): 95%
Percent Pre-Emergent Control of Seed Germination ([7]; 1.0 pounds): 95%
Percent Pre-Emergent Control of Seed Germination ([8]; 0.03 pounds): 0%
Percent Pre-Emergent Control of Seed Germination ([8]; 0.07 pounds): 30%
Percent Pre-Emergent Control of Seed Germination ([8]; 0.13 pounds): 50%
Percent Pre-Emergent Control of Seed Germination ([8]; 0.25 pounds): 100%
Percent Pre-Emergent Control of Seed Germination ([8]; 0.5 pounds): 100%
Percent Pre-Emergent Control of Seed Germination ([8]; 1.0 pounds): 100%
Percent Pre-Emergent Control of Seed Germination ([9]; 0.03 pounds): 30%
Percent Pre-Emergent Control of Seed Germination ([9]; 0.07 pounds): 0%
Percent Pre-Emergent Control of Seed Germination ([9]; 0.13 pounds): 95%
Percent Pre-Emergent Control of Seed Germination ([9]; 0.25 pounds): 100%
Percent Pre-Emergent Control of Seed Germination ([9]; 0.5 pounds): 100%
Percent Pre-Emergent Control of Seed Germination ([9]; 1.0 pounds): 100%
Percent Pre-Emergent Control of Seed Germination ([10]; 0.03 pounds): 50%
Percent Pre-Emergent Control of Seed Germination ([10]; 0.07 pounds): 95%
Percent Pre-Emergent Control of Seed Germination ([10]; 0.13 pounds): 95%
Percent Pre-Emergent Control of Seed Germination ([10]; 0.25 pounds): 95%
Percent Pre-Emergent Control of Seed Germination ([10]; 0.5 pounds): 95%
Percent Pre-Emergent Control of Seed Germination ([10]; 1.0 pounds): 95%
Percent Pre-Emergent Control of Seed Germination ([11]; 0.03 pounds): 0%
Percent Pre-Emergent Control of Seed Germination ([11]; 0.07 pounds): 0%
Percent Pre-Emergent Control of Seed Germination ([11]; 0.13 pounds): 0%
Percent Pre-Emergent Control of Seed Germination ([11]; 0.25 pounds): 90%
Percent Pre-Emergent Control of Seed Germination ([11]; 0.5 pounds): 95%
Percent Pre-Emergent Control of Seed Germination ([11]; 1.0 pounds): 95%
Percent Pre-Emergent Control of Seed Germination ([12]; 0.03 pounds): 0%
Percent Pre-Emergent Control of Seed Germination ([12]; 0.07 pounds): 0%
Percent Pre-Emergent Control of Seed Germination ([12]; 0.13 pounds): 100%
Percent Pre-Emergent Control of Seed Germination ([12]; 0.25 pounds): 40%
Percent Pre-Emergent Control of Seed Germination ([12]; 0.5 pounds): 50%
Percent Pre-Emergent Control of Seed Germination ([12]; 1.0 pounds): 60%

ClC(Cl)(Cl)CC1(c2cccc(OCc3ccccc3)c2)CO1 (centres unmarked) [Example 16, 2-(m-(benzyloxy)phenyl)-2-(2,2,2-trichloroethyl)oxirane]
pre-emergence control ([7]; wild oats, 20 pounds per acre): substantially complete control
pre-emergence control ([8]; pigweed, 20 pounds per acre): substantially complete control
pre-emergence control ([9]; yellow foxtail, 20 pounds per acre): substantially complete control
pre-emergence control ([10]; barnyard grass, 20 pounds per acre): substantially complete control
pre-emergence control [13]: substantially complete control

From US4018801A, “Substituted oxirane compounds” (The Dow Chemical Company, priority 1975, dated 1977)
